Emax data for one compound are collected here from patent US9717253B2, “Synergistic Bacillus thuringiensis subsp. aizawai and chlorantraniliprole mixtures for diamondback moth, beet armyworm, soybean looper, corn earworm, cabbage looper, and southwestern corn borer control” (priority 2015, dated 2017).

Assay [1] deals with diamondback moth larvae. The assay can be described thus: Leaf dip test, diamondback moth larvae. The format is in vivo. The note with it: Plutella xylostella, foliar, Bta 2.7 ppm, chlorantraniliprole 0.0009 ppm, mixture 2.7 ppm + 0.0009 ppm, read-out: % Efficacy. As for the experimental part:
(§1) For these tests, standardized laboratory leaf dip methods were used to inoculate plant material with treatment(s). Dry, treated leaves were placed into Petri dishes (100×25 mm) containing filter paper wetted with 500 μl of distilled H2O (“dH2O”). Each dish was then infested with between 5 and 10 larvae, dependent on species. Efficacy ratings were taken at specified intervals. Synergy ratings were calculated for each test.
In this study, the response of diamondback moth larvae to synergistic amounts of Bacillus thuringiensis subsp. aizawai (“Bta”) and chlorantraniliprole was observed.
(§2) % Cexp=A+B−(AB/100), where % Cexp is the expected efficacy and “in which A and B are the control levels given by the single [insecticides]. If the ratio between the experimentally observed efficacy of the mixture Cobs and the expected efficacy of the mixture is greater than 1, synergistic interactions are present in the mixture.” (Gisi, Synergisitic Interaction of Fungicides in Mixtures, The American Phytopathological Society, 86:11, 1273-1279, 1996). Adopting a conservative approach, Applicant determined synergy to be present at ratios of ≧1.15.
(§3) Bacillus thuringiensis subsp. aizawai was applied at a concentration of 2.7 ppm (2.7 μg/ml). Chlorantraniliprole was applied at a concentration of 0.0009 ppm (0.0009 μg/ml). […]

For assay [2], the system named is sugarcane borer larvae. The assay can be described thus: Leaf dip test, sugarcane borer larvae. In kind it is in vivo. As to conditions: foliar, Bta 27 ppm, chlorantraniliprole 0.0009 ppm, mixture 27 ppm + 0.0009 ppm, read-out: % Efficacy. As for the experimental part:
as §1, §2
In this study, the response of sugarcane borer larvae to amounts of Bacillus thuringiensis subsp. aizawai and chlorantraniliprole was observed.
(§4) Bacillus thuringiensis subsp. aizawai was applied at a concentration of 27 ppm (27 μg/ml). Chlorantraniliprole was applied at a concentration of 0.0009 ppm (0.0009 μg/ml). […]

Assay [3] relates to corn earworm larvae. The assay can be described thus: Leaf dip test, corn earworm larvae. The format is in vivo. The note with it: Helicoverpa zea, foliar, Bta 27 ppm, chlorantraniliprole 0.0009 ppm, mixture 27 ppm + 0.0009 ppm, read-out: % Efficacy. As for the experimental part:
as §1, §2
In this study, the response of corn earworm larvae to amounts of Bacillus thuringiensis subsp. aizawai and chlorantraniliprole was observed.
as §4

Assay [4] concerns southwestern corn borer larvae. Kind of assay: Leaf dip test, southwestern corn borer larvae. As to conditions: foliar, Bta 2.7 ppm, chlorantraniliprole 0.0009 ppm, mixture 2.7 ppm + 0.0009 ppm, read-out: % Efficacy. The format is in vivo, Diatraea grandiosella. As for the experimental part: as §1, §2
In this study, the response of southwestern corn borer larvae to amounts of Bacillus thuringiensis subsp. aizawai and chlorantraniliprole was observed.
as §3

Assay [5] deals with cabbage looper larvae. The assay can be described thus: Leaf dip test, cabbage looper larvae. In kind it is in vivo. The note with it: Trichoplusia ni, foliar, Bta 2.7 ppm, chlorantraniliprole 0.0009 ppm, mixture 2.7 ppm + 0.0009 ppm, read-out: % Efficacy. The protocol:
as §1, §2
In this study, the response of cabbage looper larvae to amounts of Bacillus thuringiensis subsp. aizawai and chlorantraniliprole was observed.
as §3

Assay [6] concerns soybean looper larvae. Kind of assay: Leaf dip test, soybean looper larvae. The format is in vivo, Chrysodeixis includens. As to conditions: foliar, Bta 27 ppm, chlorantraniliprole 0.0009 ppm, mixture 27 ppm + 0.0009 ppm, read-out: % Efficacy. As for the experimental part:
as §1, §2
In this study, the response of soybean looper larvae to amounts of Bacillus thuringiensis subsp. aizawai and chlorantraniliprole was observed.
as §4

Assay [7] relates to beet armyworm larvae. The assay can be described thus: Leaf dip test, beet armyworm larvae. As to conditions: Spodoptera exigua, foliar, Bta 2.7 ppm, chlorantraniliprole 0.0009 ppm, mixture 2.7 ppm + 0.0009 ppm, read-out: % Efficacy. The format is in vivo. As for the experimental part: as §1, §2
In this study, the response of beet armyworm larvae to amounts of Bacillus thuringiensis subsp. aizawai and chlorantraniliprole was observed.
as §3

Structures are written as SMILES. Where two headings read alike, the source gives them in different places.

For the compound `CNC(=O)c1cc(Cl)cc(C)c1NC(=O)c1cc(Br)nn1-c1ncccc1Cl` [Chlorantraniliprole, chlorantraniliprole], the Emax at 0.0009 ppm in assay [1] (24 h after treatment) was determined as 7%; in assay [1] (48 h after treatment) it was 7%; in assay [2] (24 h after treatment), 6%; in assay [2] (48 h after treatment), 12%; in assay [3] (24 h after treatment), 10%; in assay [3] (48 h after treatment), 7%. The Emax at 0.0009 ppm in assay [4] (24 h after treatment) was 3%; in assay [4] (48 h after treatment), 7%; in assay [5] (24 h after treatment), 7%; in assay [5] (48 h after treatment), 10%; in assay [6] (24 h after treatment) it was 10%; in assay [6] (48 h after treatment), 13%. Further, the Emax at 0.0009 ppm in assay [7] (24 h after treatment) came out at 10%; in assay [7] (48 h after treatment) it was 13%.
